Columns and labels:
[1] = 101.33 kPa, Crystal, Thin-film microcalorimeter
[2] = molar heat capacity at constant pressure; details: 101.33 kPa, Crystal, Thin-film microcalorimeter

[O-2].[Zn+2] [zinc(II) oxide]
Details | molar entropy, [1] [J/K/mol] | molar heat capacity at constant pressure, [2] [J/K/mol]
1 K | 2e-05 | 6e-05
1.906 K | – | 0.0004
2 K | 0.0001 | 0.0004
2.105 K | – | 0.0005
2.329 K | – | 0.0007
2.579 K | – | 0.0009
2.856 K | – | 0.0013
3 K | 0.0005 | 0.0015
3.169 K | – | 0.0018
3.509 K | – | 0.0024
3.893 K | – | 0.0033
4 K | 0.0012 | 0.0036
4.319 K | – | 0.0045
4.794 K | – | 0.0062
5 K | 0.0023 | 0.007
5.322 K | – | 0.0085
5.907 K | – | 0.0115
6 K | 0.004 | 0.0121
6.557 K | – | 0.0158
7 K | 0.0064 | 0.0193
7.279 K | – | 0.0217
8 K | 0.0096 | 0.0288
8.084 K | – | 0.0296
8.978 K | – | 0.0409
9 K | 0.0136 | 0.0414
9.969 K | – | 0.0573
10 K | 0.0188 | 0.0577
11 K | 0.0252 | 0.0785
11.07 K | – | 0.0803
12 K | 0.0332 | 0.1048
12.3 K | – | 0.1145
13 K | 0.0428 | 0.1378
13.64 K | – | 0.1629
14 K | 0.0545 | 0.1786
15 K | 0.0684 | 0.2282
15.18 K | – | 0.237
16 K | 0.085 | 0.2876
16.82 K | – | 0.3415
17 K | 0.1045 | 0.3576
18 K | 0.1272 | 0.439
18.66 K | – | 0.5019
19 K | 0.1533 | 0.5323
20 K | 0.1833 | 0.6378
20.68 K | – | 0.718
22.98 K | – | 1.028
25 K | 0.3964 | 1.349
25.55 K | – | 1.448
28.39 K | – | 1.989
30 K | 0.7254 | 2.327
31.54 K | – | 2.658
35 K | 1.169 | 3.48
35.05 K | – | 3.48
38.93 K | – | 4.451
40 K | 1.714 | 4.713
43.22 K | – | 5.533
45 K | 2.341 | 5.965
48.01 K | – | 6.726
50 K | 3.035 | 7.218
53.32 K | – | 8.042
55 K | 3.781 | 8.463
59.21 K | – | 9.463
60 K | 4.569 | 9.606
65 K | 5.382 | 10.71
65.75 K | – | 10.92
70 K | 6.216 | 11.8
73.03 K | – | 12.44
75 K | 7.065 | 12.85
80 K | 7.928 | 13.87
81.09 K | – | 14.11
85 K | 8.798 | 14.86
90 K | 9.675 | 15.83
90.06 K | – | 15.91
95 K | 10.56 | 16.77
99.87 K | – | 17.65
100 K | 11.44 | 17.69
110 K | 13.21 | 19.46
110.46 K | – | 19.47
120 K | 14.98 | 21.16
120.49 K | – | 21.17
130 K | 16.73 | 22.78
130.48 K | – | 22.84
140 K | 18.48 | 24.34
140.63 K | – | 24.44
150 K | 20.21 | 25.82
150.79 K | – | 25.91
160 K | 21.92 | 27.24
160.85 K | – | 27.33
170 K | 23.61 | 28.58
170.76 K | – | 28.78
180 K | 25.28 | 29.85
181.03 K | – | 30.05
190 K | 26.93 | 31.05
191.32 K | – | 31.22
200 K | 28.55 | 32.19
201.42 K | – | 32.29
210 K | 30.15 | 33.26
211.59 K | – | 33.41
220 K | 31.72 | 34.27
221.8 K | – | 34.44
230 K | 33.26 | 35.22
232 K | – | 35.5
240 K | 34.78 | 36.12
242.17 K | – | 36.29
250 K | 36.27 | 36.96
252.15 K | – | 37.15
260 K | 37.74 | 37.76
262.28 K | – | 37.93
270 K | 39.18 | 38.5
272.28 K | – | 38.59
273.15 K | 39.63 | 38.73
280 K | 40.59 | 39.2
282.48 K | – | 39.3
290 K | 41.98 | 39.86
292.54 K | – | 39.86
298.15 K | 43.09 | 40.36
300 K | 43.34 | 40.48
302.58 K | – | 40.86

Reference: the NIST ThermoML archive (doi:10.1016/j.jct.2013.01.004)
